The term EC50 denotes the concentration at which the effect is half-maximal. Low readings indicate an effect from little substance, high ones a need for much substance.

*1 amine or outer side, *2 acyl side, *3 side chain or, on linkers, in order; H or OH if unused. Where a SMILES comes first, the peptide text is derived from it. Side-chain parts run from the residue outwards. [ ]: non-standard residue; d: D form. The star is where a group is joined. γGlu = O=C(O)[C@H](CCC(=O)[*:2])N[*:1]; Stearoyl = CCCCCCCCCCCCCCCCCC(=O)*; Palmitoyl = CCCCCCCCCCCCCCCC(=O)*; Aib = CC(C)(N)C(=O)O

This passage reports EC50 results from patent US20140213513A1 (Sanofi, priority 2012, published 2014).

Common to all, as to format: cell-based
Holding throughout (conditions): Table 7; cAMP formation
Background: cAMP levels reflect the balance of adenylyl cyclase and phosphodiesterase activity.

Assay [1] concerns the target T1, human GLP-1 receptor (hGLP-1 R) (Homo sapiens, UniProt P43220).
T1 construct: expressed in transfected cells
Briefly: cAMP response of HEK-293 cells stably expressing human GLP-1 receptor (HTRF). Put shortly:
(§1)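 cAMP accumulation was read by homogeneous time-resolved fluorescence after 30 min compound exposure at room temperature. Stable receptor-expressing HEK-293 cells, 400000 cells/ml, were used in HEPES-buffered HBSS containing 0.1% BSA and the phosphodiesterase inhibitor IBMX (2 mM).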
Background: Time-resolved FRET reads energy transfer from a long-lived donor to a nearby acceptor.

Assay [2] concerns the target T2, human GIP receptor (hGIP R) (Homo sapiens, UniProt P48546).
T2 construct: expressed in transfected cells
T2 sequence (P48546 22-466): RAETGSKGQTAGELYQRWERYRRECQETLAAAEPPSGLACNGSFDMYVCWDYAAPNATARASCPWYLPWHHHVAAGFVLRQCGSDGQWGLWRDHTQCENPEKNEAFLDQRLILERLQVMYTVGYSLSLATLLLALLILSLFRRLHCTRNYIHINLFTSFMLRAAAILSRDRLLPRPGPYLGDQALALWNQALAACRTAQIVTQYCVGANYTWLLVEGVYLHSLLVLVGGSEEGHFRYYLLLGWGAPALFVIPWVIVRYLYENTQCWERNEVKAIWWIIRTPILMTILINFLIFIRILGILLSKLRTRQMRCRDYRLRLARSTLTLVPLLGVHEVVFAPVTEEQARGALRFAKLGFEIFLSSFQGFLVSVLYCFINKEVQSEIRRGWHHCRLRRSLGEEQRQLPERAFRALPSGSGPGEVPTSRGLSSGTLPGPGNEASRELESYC
Briefly: cAMP response of HEK-293 cells stably expressing human GIP receptor (HTRF). Summed up:
as §1

Assay [3] has as its target T3, human glucagon receptor (hGLUC R) (Homo sapiens, UniProt P47871).
T3 construct: expressed in transfected cells
Nature of the assay: cAMP response of HEK-293 cells stably expressing human glucagon receptor (HTRF). Put shortly: as §1

T1 sequence (P43220 24-463): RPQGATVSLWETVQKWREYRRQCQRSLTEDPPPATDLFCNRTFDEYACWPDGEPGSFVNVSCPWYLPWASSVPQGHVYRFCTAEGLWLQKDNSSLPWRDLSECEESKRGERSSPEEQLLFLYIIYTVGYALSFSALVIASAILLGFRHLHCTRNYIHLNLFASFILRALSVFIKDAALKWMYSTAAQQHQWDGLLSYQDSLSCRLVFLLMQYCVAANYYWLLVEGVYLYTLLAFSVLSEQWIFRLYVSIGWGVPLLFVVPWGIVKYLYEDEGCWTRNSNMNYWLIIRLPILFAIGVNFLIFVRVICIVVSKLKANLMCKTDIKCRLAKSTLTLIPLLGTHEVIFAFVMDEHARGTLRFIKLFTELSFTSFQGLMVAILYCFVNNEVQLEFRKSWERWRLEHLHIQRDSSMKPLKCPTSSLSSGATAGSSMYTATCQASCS
T3 sequence (P47871 26-477): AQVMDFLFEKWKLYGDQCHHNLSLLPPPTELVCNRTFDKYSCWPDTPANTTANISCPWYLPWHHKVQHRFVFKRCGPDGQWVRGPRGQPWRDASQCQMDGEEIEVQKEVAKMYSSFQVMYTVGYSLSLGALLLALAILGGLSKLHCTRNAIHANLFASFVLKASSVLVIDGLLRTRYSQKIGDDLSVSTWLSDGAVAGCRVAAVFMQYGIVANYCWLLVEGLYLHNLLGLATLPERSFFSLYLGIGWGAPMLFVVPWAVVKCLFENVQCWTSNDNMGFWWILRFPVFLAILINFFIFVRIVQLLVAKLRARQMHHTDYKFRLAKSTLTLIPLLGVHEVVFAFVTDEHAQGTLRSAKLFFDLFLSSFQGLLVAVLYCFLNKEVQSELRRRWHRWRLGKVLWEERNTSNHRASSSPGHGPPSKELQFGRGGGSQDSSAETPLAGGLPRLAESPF

On to `CCCCCCCCCCCCCCCC(=O)N[C@@H](CCC(=O)NCCCC[C@H](NC(=O)[C@H](CCC(N)=O)NC(=O)[C@H](CCCCN)NC(=O)[C@H](CO)NC(=O)[C@H](CC(C)C)NC(=O)[C@H](CC(=O)O)NC(=O)[C@H](CO)NC(=O)[C@@H](NC(=O)[C@H](Cc1ccccc1)NC(=O)[C@@H](NC(=O)CNC(=O)[C@H](CCC(=O)O)NC(=O)C(C)(C)NC(=O)[C@@H](N)Cc1ccc(O)cc1)[C@@H](C)O)[C@@H](C)O)C(=O)N[C@@H](CC(=O)O)C(=O)N[C@@H](CCCCN)C(=O)N[C@@H](CCCNC(=N)N)C(=O)N[C@@H](C)C(=O)N[C@@H](C)C(=O)N[C@@H](CCC(N)=O)C(=O)N[C@@H](CC(=O)O)C(=O)N[C@@H](Cc1ccccc1)C(=O)N[C@H](C(=O)N[C@@H](CCC(=O)O)C(=O)N[C@@H](Cc1c[nH]c2ccccc12)C(=O)N[C@@H](CC(C)C)C(=O)N[C@@H](CCCCN)C(=O)N[C@@H](C)C(=O)NCC(=O)NCC(=O)N1CCC[C@H]1C(=O)N[C@@H](CO)C(=O)N[C@@H](CO)C(=O)NCC(=O)N[C@@H](C)C(=O)N1CCC[C@H]1C(=O)N1CCC[C@H]1C(=O)N1CCC[C@H]1C(=O)N[C@@H](CO)C(N)=O)[C@@H](C)CC)C(=O)O` [SEQ ID NO: 63, Y-Aib-E-G-T-F-T-S-D-L-S-K-Q-K(yE-x53)-DKRAAQDFIEWLKAGGPSSGAPPPS-NH2] (H-Y[Aib]EGTFTSDLSKQK([γGlu-Palmitoyl])DKRAAQDFIEWLKAGGPSSGAPPPS-NH2), for which the figures for the EC50 in assay [1], in assay [2] and in assay [3] were 0.006 nM, 0.0119 nM and 1.67 nM, respectively.
In the same order, the values of `CCCCCCCCCCCCCCCC(=O)N[C@@H](CCC(=O)NCCCC[C@H](NC(=O)[C@H](CCC(N)=O)NC(=O)[C@H](CCCCN)NC(=O)[C@H](CO)NC(=O)[C@H](CC(C)C)NC(=O)[C@H](CC(=O)O)NC(=O)[C@H](CO)NC(=O)[C@@H](NC(=O)[C@H](Cc1ccccc1)NC(=O)[C@@H](NC(=O)CNC(=O)[C@H](CCC(N)=O)NC(=O)C(C)(C)NC(=O)[C@@H](N)Cc1ccc(O)cc1)[C@@H](C)O)[C@@H](C)O)C(=O)N[C@@H](CC(=O)O)C(=O)N[C@@H](CO)C(=O)N[C@@H](CCCCN)C(=O)N[C@@H](C)C(=O)N[C@@H](C)C(=O)N[C@@H](CCC(N)=O)C(=O)N[C@@H](CC(=O)O)C(=O)N[C@@H](Cc1ccccc1)C(=O)N[C@H](C(=O)N[C@@H](CCC(=O)O)C(=O)N[C@@H](Cc1c[nH]c2ccccc12)C(=O)N[C@@H](CC(C)C)C(=O)N[C@@H](CCCCN)C(=O)N[C@@H](C)C(=O)NCC(=O)NCC(=O)N1CCC[C@H]1C(=O)N[C@@H](CO)C(=O)N[C@@H](CO)C(=O)NCC(=O)N[C@@H](C)C(=O)N1CCC[C@H]1C(=O)N1CCC[C@H]1C(=O)N1CCC[C@H]1C(=O)N[C@@H](CO)C(N)=O)[C@@H](C)CC)C(=O)O` [SEQ ID NO: 61, Y-Aib-Q-G-T-F-T-S-D-L-S-K-Q-K(yE-x53)-DSKAAQDFIEWLKAGGPSSGAPPPS-NH2] (H-Y[Aib]QGTFTSDLSKQK([γGlu-Palmitoyl])DSKAAQDFIEWLKAGGPSSGAPPPS-NH2) are 0.0024 nM, 0.0214 nM and 0.0061 nM.
The like results for `CCCCCCCCCCCCCCCCCC(=O)N[C@@H](CCC(=O)NCCCC[C@H](NC(=O)[C@H](CCC(N)=O)NC(=O)[C@H](CCCCN)NC(=O)[C@H](CO)NC(=O)[C@H](CC(C)C)NC(=O)[C@H](CC(=O)O)NC(=O)[C@H](CO)NC(=O)[C@@H](NC(=O)[C@H](Cc1ccccc1)NC(=O)[C@@H](NC(=O)CNC(=O)[C@H](CCC(N)=O)NC(=O)C(C)(C)NC(=O)[C@@H](N)Cc1ccc(O)cc1)[C@@H](C)O)[C@@H](C)O)C(=O)N[C@@H](CC(=O)O)C(=O)N[C@@H](CCC(=O)O)C(=O)N[C@@H](CCC(=O)O)C(=O)N[C@@H](C)C(=O)N[C@@H](C)C(=O)N[C@@H](CCCNC(=N)N)C(=O)N[C@@H](CC(C)C)C(=O)N[C@@H](Cc1ccccc1)C(=O)N[C@H](C(=O)N[C@@H](CCC(=O)O)C(=O)N[C@@H](Cc1c[nH]c2ccccc12)C(=O)N[C@@H](CC(C)C)C(=O)N[C@@H](CCCCN)C(=O)N[C@@H](C)C(=O)NCC(=O)NCC(=O)N1CCC[C@H]1C(=O)N[C@@H](CO)C(=O)N[C@@H](CO)C(=O)NCC(=O)N[C@@H](C)C(=O)N1CCC[C@H]1C(=O)N1CCC[C@H]1C(=O)N1CCC[C@H]1C(=O)N[C@@H](CO)C(N)=O)[C@@H](C)CC)C(=O)O` [SEQ ID NO: 60, Y-Aib-Q-G-T-F-T-S-D-L-S-K-Q-K(yE-x70)-DEEAARLFIEWLKAGGPSSGAPPPS-NH2] (H-Y[Aib]QGTFTSDLSKQK([γGlu-Stearoyl])DEEAARLFIEWLKAGGPSSGAPPPS-NH2) were, in that order, 0.0053 nM, 0.0168 nM and 0.0091 nM.
Consider `CCCCCCCCCCCCCCCC(=O)N[C@@H](CCC(=O)NCCCC[C@H](NC(=O)[C@H](CCC(N)=O)NC(=O)[C@@H](NC(=O)[C@H](CO)NC(=O)[C@H](CC(C)C)NC(=O)[C@H](CC(=O)O)NC(=O)[C@H](CO)NC(=O)[C@@H](NC(=O)[C@H](Cc1ccccc1)NC(=O)[C@@H](NC(=O)CNC(=O)[C@H](CCC(N)=O)NC(=O)C(C)(C)NC(=O)[C@@H](N)Cc1ccc(O)cc1)[C@@H](C)O)[C@@H](C)O)[C@@H](C)CC)C(=O)N[C@@H](CCC(=O)O)C(=O)N[C@@H](CCCCN)C(=O)N[C@@H](CCCNC(=N)N)C(=O)N[C@@H](C)C(=O)N[C@@H](C)C(=O)N[C@@H](CC(C)C)C(=O)N[C@@H](CCC(=O)O)C(=O)N[C@@H](Cc1ccccc1)C(=O)N[C@H](C(=O)N[C@@H](CCC(=O)O)C(=O)N[C@@H](Cc1c[nH]c2ccccc12)C(=O)N[C@@H](CC(C)C)C(=O)N[C@@H](CCCCN)C(=O)N[C@@H](CC(N)=O)C(=O)N[C@H](C(=O)NCC(=O)N1CCC[C@H]1C(=O)N[C@@H](CO)C(=O)N[C@@H](CO)C(=O)NCC(=O)N[C@@H](C)C(=O)N1CCC[C@H]1C(=O)N1CCC[C@H]1C(=O)N1CCC[C@H]1C(=O)N[C@@H](CO)C(N)=O)[C@@H](C)O)[C@@H](C)CC)C(=O)O` [SEQ ID NO: 33, Y-Aib-Q-G-T-F-T-S-D-L-S-I-Q-K(yE-x53)-EKRAALEFIEWLKNTGPSSGAPPPS-NH2] (H-Y[Aib]QGTFTSDLSIQK([γGlu-Palmitoyl])EKRAALEFIEWLKNTGPSSGAPPPS-NH2), for which the concentration giving a half-maximal response (EC50) in assay [1] came out at 0.0081 nM; in assay [2], 0.0882 nM; in assay [3] it was 0.109 nM.
